pKd: −log10 of the molar value. Calls of active or inactive are those of the source. The rule behind the calls is not given here.
Key:
Complement C5 [1] = biological target: T1, Complement C5 (Homo sapiens, UniProt P01031); assay: Binding affinity to C5a (unknown origin) assessed as change in near-UV CD signature at 50 uM; settings: filed as modulator
[2] = biological target: T2, C5a anaphylatoxin chemotactic receptor 2 (Homo sapiens, UniProt Q9P296); assay: Binding affinity to N-terminal peptide SR13 of C5aR2 (14 to 32 residues)(unknown origin) assessed as dissociation constant by fluorescence based analysis
T2 sequence (Q9P296 whole entry, the tested form may be a part): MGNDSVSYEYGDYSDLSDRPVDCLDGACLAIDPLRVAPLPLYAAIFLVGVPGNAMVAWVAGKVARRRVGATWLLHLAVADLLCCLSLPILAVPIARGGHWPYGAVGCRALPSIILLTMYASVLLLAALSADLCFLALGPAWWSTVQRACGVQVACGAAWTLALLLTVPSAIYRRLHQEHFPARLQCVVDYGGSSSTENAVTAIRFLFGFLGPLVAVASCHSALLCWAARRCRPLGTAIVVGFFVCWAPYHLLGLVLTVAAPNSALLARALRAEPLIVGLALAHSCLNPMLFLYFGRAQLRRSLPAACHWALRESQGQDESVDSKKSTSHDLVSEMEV

Complement C5 [3] = biological target: T1, Complement C5; assay: Binding affinity to C5a (unknown origin) at 10 uM by FT-IR analysis; settings: filed as modulator
HEK293 = assay: Cytotoxicity against human HEK293 cells assessed as cellular viability at 0.19 to 100 uM incubated for 18 hrs by MTT assay; type: toxicity, cell-based; settings: hek293, 18 h, dose 0.19-100 µM
[4] = biological target: T3, C5a anaphylatoxin chemotactic receptor 1 (Homo sapiens, UniProt P21730); assay: Binding affinity to N-terminal peptide SR3 of C5aR1 (1 to 28 residues)(unknown origin) assessed as dissociation constant by fluorescence based analysis
T3 sequence (P21730 whole entry): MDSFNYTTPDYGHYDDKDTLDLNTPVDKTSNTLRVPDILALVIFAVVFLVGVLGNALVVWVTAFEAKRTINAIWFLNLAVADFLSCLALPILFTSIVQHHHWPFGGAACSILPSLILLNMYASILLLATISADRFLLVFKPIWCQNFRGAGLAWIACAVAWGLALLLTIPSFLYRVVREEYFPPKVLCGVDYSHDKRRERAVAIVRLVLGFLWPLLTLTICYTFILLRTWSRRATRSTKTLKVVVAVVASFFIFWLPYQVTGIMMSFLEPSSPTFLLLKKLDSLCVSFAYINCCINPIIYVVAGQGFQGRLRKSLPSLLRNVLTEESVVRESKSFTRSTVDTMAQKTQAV

[5] = biological target: T2, C5a anaphylatoxin chemotactic receptor 2; assay: Binding affinity to N-terminal peptide SR12 of C5aR2 (6 to 32 residues)(unknown origin) assessed as dissociation constant by fluorescence based analysis
trypsin = trypsin (Homo sapiens, UniProt P07477+P07478+P35030); assay: Induction of trypsin (unknown origin)-mediated proteolysis of compound incubated for 4 hrs by LC-HRMS spectroscopy; type: protein assay; settings: trypsin (enzyme incubation), read-out: Activity
Complement C5 [6] = biological target: T1, Complement C5; assay: Binding affinity to C5a (unknown origin) assessed as dissociation constant incubated for 1 hr by CD analysis
[7] = biological target: T3, C5a anaphylatoxin chemotactic receptor 1; assay: Binding affinity to N-terminal peptide SR5 of C5aR1 (1 to 28 residues)(unknown origin) assessed as dissociation constant by fluorescence based analysis
Erythrocyte = assay: Hemolytic activity against human erythrocytes at 0.19 to 100 uM incubated for 1 hr by absorbance based assay; type: toxicity, cell-based; settings: dose 0.19-100 µM
Complement C5 [8] = biological target: T1, Complement C5; assay: Binding affinity to C5a (unknown origin) assessed as dissociation constant by fluorescence quenching analysis
Complement C5 [9] = biological target: T1, Complement C5; assay: Binding affinity to C5a (unknown origin) at 2 mM by 1H NMR analysis; settings: filed as modulator
HeLa = assay: Cytotoxicity against human HeLa cells assessed as cellular viability at 0.19 to 100 uM incubated for 18 hrs by MTT assay; type: toxicity, cell-based; settings: dose 0.19-100 µM
Complement C5 [10] = biological target: T1, Complement C5; assay: Binding affinity to C5a (unknown origin) assessed as tryptophan lifetime by TCSPC analysis (reference value: 2.70 +/- 0.03 nanoseconds); settings: filed as modulator

Compound | Activity (Complement C5 [1]) | pKd [2] | Activity (Complement C5 [3]) | Activity (HEK293) | pKd [4] | pKd [5] | metabolised at 4 h (trypsin) | pKd (Complement C5 [6]) | pKd [7] | Activity (Erythrocyte) | pKd (Complement C5 [8]) | Activity (Complement C5 [9]) | Activity (HeLa) | Time (Complement C5 [10])
CC[C@H](C)[C@H](NC(=O)[C@H](CO)NC(=O)[C@@H](CCC(=O)O)NC(=O)[C@H](CCCNC(=N)N)NC(=O)[C@@H]1CCCN1C(=O)[C@@H](Cc1ccccc1)NC(=O)[C@H](CC(=O)O)NC(=O)[C@@H](CCCNC(=N)N)NC(=O)[C@H](CCCCN)NC(=O)[C@H](Cc1c[nH]c2ccccc12)NC(=O)[C@H](CCSC)NC(=O)[C@@H](CCC(=O)O)NC(=O)[C@H](CC(=O)O)NC(=O)[C@H](CC(C)C)NC(=O)CNC(=O)[C@H]1CCCN1C(=O)[C@H](Cc1ccc(O)cc1)NC(=O)[C@H](CCC(N)=O)NC(=O)[C@@H](CC(=O)O)NC(=O)[C@H](CCCNC(=N)N)NC(=O)[C@@H](NC(=O)[C@H](Cc1cnc[nH]1)NC(=O)[C@@H](CCC(=O)O)NC(=O)[C@H](CC(N)=O)NC(=O)[C@H](CC(C)C)NC(C)=O)C(C)C)C(=O)N[C@@H](CCCNC(=N)N)C(=O)N[C@H](C(=O)N[C@@H](Cc1cnc[nH]1)C(=O)N[C@H](C(=O)N[C@@H](C)C(N)=O)[C@@H](C)O)[C@@H](C)O | Active | 6.52 | Active | Non-Toxic | 6.90 | 6.69 | 0% | 6.15 | 6.98 | Non-Toxic | 6.06 | Active | Non-Toxic | –
CC[C@H](C)[C@H](NC(=O)[C@H](CO)NC(=O)[C@H](CCC(=O)O)NC(=O)[C@H](CCCNC(=N)N)NC(=O)[C@@H]1CCCN1C(=O)[C@H](Cc1ccccc1)NC(=O)[C@H](CC(=O)O)NC(=O)[C@H](CCCNC(=N)N)NC(=O)[C@H](CCCCN)NC(=O)[C@H](Cc1c[nH]c2ccccc12)NC(=O)[C@H](CCSC)NC(=O)[C@H](CCC(=O)O)NC(=O)[C@H](CC(=O)O)NC(=O)[C@H](CC(C)C)NC(=O)CNC(=O)[C@@H]1CCCN1C(=O)[C@H](Cc1ccc(O)cc1)NC(=O)[C@H](CCC(N)=O)NC(=O)[C@H](CC(=O)O)NC(=O)[C@H](CCCNC(=N)N)NC(=O)[C@@H](NC(=O)[C@H](Cc1cnc[nH]1)NC(=O)[C@H](CCC(=O)O)NC(=O)[C@H](CC(N)=O)NC(=O)[C@H](CC(C)C)NC(C)=O)C(C)C)C(=O)N[C@@H](CCCNC(=N)N)C(=O)N[C@H](C(=O)N[C@@H](Cc1cnc[nH]1)C(=O)N[C@H](C(=O)N[C@@H](C)C(N)=O)[C@@H](C)O)[C@@H](C)O | Active | 6.52 | Active | Non-Toxic | 6.90 | 6.69 | – | 6.03 | 6.98 | Non-Toxic | 6.09 | Active | Non-Toxic | 1.99 nanoseconds

— ChEMBL document CHEMBL5576118, “Structure of Designer Antibody-like Peptides Binding to the Human C5a with Potential to Modulate the C5a Receptor Signaling” (J Med Chem, 2024)
